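1) Cells in 96-well plates. 2) Compound, 48 h, 5 concentrations. 3) Linear interpolation between surrounding doses. 4) Unreached endpoint = highest concentration. The concentration for 50% growth inhibition is given as GI50. Definition used: TGI = concentration required for complete inhibition of growth.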 Some results are limits rather than exact numbers.

Some test systems named below: KM12 colon; LOX IMVI melanoma; M14 melanoma; MDA-MB-435; MDA-N; OVCAR-3 ovarian; SF-295 CNS; SF-539 CNS; SK-MEL-28 melanoma; UO-31 renal.
Experiment in all cases: NCI tumour cell line growth inhibition, 48 h

For `CCC(CCCC[C@H]1CC[C@@H]2CC(=O)C[C@H]12)OC` (stereo not given in full), the TGI in the assay with KM12 colon, with LOX IMVI melanoma, with M14 melanoma, in the assay on MDA-MB-435, with MDA-N and in the assay with OVCAR-3 ovarian was more than 100 µM in each case. Besides, the TGI in the assay on SF-295 CNS, in the assay with SF-539 CNS and with SK-MEL-28 melanoma was more than 100 µM in each case.

Turning to `COC(=O)[C@@H]1CN(C(=O)Cc2ccccc2)C(=O)N1`, the TGI in the assay on KM12 colon, with LOX IMVI melanoma, with M14 melanoma, with MDA-MB-435, in the assay on OVCAR-3 ovarian and in the assay on SF-295 CNS was more than 100 µM throughout. Besides, the TGI in the assay with SF-539 CNS, with SK-MEL-28 melanoma and in the assay on UO-31 renal was more than 100 µM throughout.

With `O=C(OC[C@H]1C[C@H]2C(=O)OCCC[C@H]2O1)c1ccccc1`, the TGI in the assay with KM12 colon, in the assay with M14 melanoma, in the assay on MDA-MB-435, in the assay on MDA-N, in the assay on OVCAR-3 ovarian and in the assay on SF-295 CNS was more than 100 µM in each case. Further, the TGI in the assay with SK-MEL-28 melanoma and in the assay with UO-31 renal was more than 100 µM each time.

As for `c1c2c(cc3c1OCO3)-c1ncc3cc4c(cc3c1C2)OCO4`, the GI50 in the assay with LOX IMVI melanoma is less than 0.01 µM; in the assay with M14 melanoma, less than 0.01 µM; in the assay on MDA-MB-435, 54 µM; in the assay with OVCAR-3 ovarian, 0.18 µM; in the assay on SF-539 CNS, 0.598 µM; in the assay with SK-MEL-28 melanoma, less than 0.01 µM. The GI50 with UO-31 renal is 2.49 µM. In addition, the TGI with LOX IMVI melanoma was 94.1 µM; with M14 melanoma, more than 100 µM; with MDA-MB-435, more than 100 µM; in the assay with OVCAR-3 ovarian it was 0.356 µM; in the assay with SF-295 CNS it was more than 34 µM; with SF-539 CNS, 5.25 µM. For the same molecule, the TGI with SK-MEL-28 melanoma was 41.8 µM; in the assay with UO-31 renal it was more than 100 µM.

Take `Clc1ccc(Cc2nc3cc4ccccc4cc3[nH]2)cc1Cl`: the TGI in the assay with KM12 colon turned out to be 45.9 µM; in the assay with LOX IMVI melanoma, 60.8 µM; in the assay on M14 melanoma it was 75.3 µM; in the assay with MDA-MB-435 it was 49.3 µM; in the assay with OVCAR-3 ovarian it was 61 µM; in the assay with SF-539 CNS it was 41.3 µM. For the same molecule, the TGI with SK-MEL-28 melanoma is 29.4 µM; in the assay with UO-31 renal it was 28.5 µM.

`CCc1nnc2sc(-c3ccc(-c4ccccc4[N+](=O)[O-])o3)nn12`: the TGI in the assay on KM12 colon was more than 100 µM; in the assay on LOX IMVI melanoma, more than 100 µM; in the assay on M14 melanoma, more than 100 µM; with MDA-MB-435, 49.8 µM; with MDA-N, 46.1 µM; in the assay on OVCAR-3 ovarian, more than 100 µM. Further, the figures for the TGI in the assay with SF-295 CNS, with SF-539 CNS and in the assay on UO-31 renal were more than 100 µM, 89 µM and more than 100 µM, respectively.

With `N#CCCN(C(=O)Nc1ccc(NC(=O)N(CCC#N)c2ccccc2)cc1)c1ccccc1`, the TGI in the assay with KM12 colon, in the assay on LOX IMVI melanoma, in the assay on M14 melanoma, in the assay on MDA-MB-435, with MDA-N and with OVCAR-3 ovarian was more than 100 µM in each case. The TGI with SF-295 CNS, in the assay with SK-MEL-28 melanoma and with UO-31 renal was more than 100 µM each time.

Take `COc1ccc(N2C(=O)[C@@H]3[C@@H]4CC(C)CC[C@@H]4c4c([nH]c5ccccc45)[C@@H]3C2=O)cc1` (stereo not given in full): the TGI in the assay with KM12 colon was more than 100 µM; in the assay with LOX IMVI melanoma, more than 87.6 µM; in the assay with M14 melanoma it was more than 74.9 µM; with OVCAR-3 ovarian, 37.2 µM; in the assay with SF-295 CNS, 45 µM; with SF-539 CNS, 25.9 µM. Also, the TGI with SK-MEL-28 melanoma was more than 100 µM; with UO-31 renal it was more than 55.9 µM.

Turning to `COC(=O)CC(=O)OC1C[C@@H]2CCC3C(C)(C)CCC[C@]3(C)C23CC[C@@]1(C)C3` (stereo not given in full), the TGI in the assay with KM12 colon came out at 33.9 µM; in the assay on LOX IMVI melanoma, 32.3 µM; in the assay on M14 melanoma it was 33.7 µM; in the assay on OVCAR-3 ovarian it was 30.7 µM; in the assay with SF-295 CNS, 34.5 µM; in the assay on SF-539 CNS, 39.1 µM. The TGI in the assay on SK-MEL-28 melanoma worked out at 38.8 µM; in the assay with UO-31 renal it was 39.8 µM.

For the molecule `CCOC(=O)c1c(N2CCN(C)CC2)[nH]c(=O)c(C(c2c(Cl)cccc2Cl)c2c(O)c(C(=O)OCC)c(N3CCN(C)CC3)[nH]c2=O)c1O`, the TGI is 49.7 µM in the assay with KM12 colon; more than 100 µM with LOX IMVI melanoma; 68.9 µM with M14 melanoma; 57.9 µM in the assay with MDA-MB-435; 87.1 µM in the assay on OVCAR-3 ovarian; 63.3 µM in the assay on SF-295 CNS. The values for the TGI in the assay with SF-539 CNS, with SK-MEL-28 melanoma and in the assay with UO-31 renal were 39.5 µM, 34.1 µM and 39.1 µM, respectively.

As to `CCCCCCCC(=O)NC(C)(C)C(=O)NCC(=O)NC(CC(C)C)C(=O)NC(C)(C)C(=O)NCC(=O)NCC(=O)NC(CC(C)C)C(=O)NC(C)(C)C(=O)NCC(=O)NC(C(=O)NC(CO)CC(C)C)C(C)CC` (stereo not given), the TGI was determined as 5.15 µM with KM12 colon; 6.88 µM in the assay with LOX IMVI melanoma; 7.62 µM in the assay on M14 melanoma; 8.24 µM in the assay on MDA-MB-435; 7.37 µM in the assay with MDA-N; 6.36 µM with OVCAR-3 ovarian. The TGI is 7.76 µM with SF-295 CNS, 7.32 µM with SK-MEL-28 melanoma and 7.93 µM in the assay with UO-31 renal.

Turning to `CCCCCCNC(=O)CCN(C(=O)O)S(=O)(=O)c1ccc(NC(=O)c2ccccc2)cc1`, the TGI with KM12 colon is more than 100 µM; in the assay with LOX IMVI melanoma it was more than 62.2 µM; with M14 melanoma it was more than 100 µM; in the assay on OVCAR-3 ovarian it was more than 100 µM; in the assay on SF-295 CNS it was more than 100 µM; in the assay on SF-539 CNS, 38.4 µM. Moreover, the TGI in the assay on SK-MEL-28 melanoma and with UO-31 renal was more than 100 µM each time.

In the case of `CN1C/C(=C\c2ccccc2)C2=NN(C(N)=S)[C@H](c3ccccc3)[C@@H]2C1`, the TGI with KM12 colon, in the assay on LOX IMVI melanoma, in the assay with M14 melanoma, with OVCAR-3 ovarian, in the assay on SF-295 CNS and in the assay on SF-539 CNS was more than 100 µM each time. Further, the TGI in the assay with SK-MEL-28 melanoma and in the assay with UO-31 renal was more than 100 µM throughout.

In the case of `COc1ccc(/C=C(\C#N)c2ccccn2)cc1OC`, the TGI in the assay with KM12 colon is more than 100 µM; in the assay on M14 melanoma it was more than 100 µM; in the assay with MDA-N it was more than 100 µM; in the assay on OVCAR-3 ovarian, more than 100 µM; in the assay with SF-295 CNS, 85.3 µM; in the assay on SF-539 CNS it was more than 100 µM. Also, the TGI with SK-MEL-28 melanoma was more than 100 µM; in the assay with UO-31 renal it was 82.2 µM.

Values taken from PubChem BioAssay (NCI).
